Test results published in article PMC10708537, “Tetrahydrocurcumin Derivatives Enhanced the Anti-Inflammatory Activity of Curcumin: Synthesis, Biological Evaluation, and Structure–Activity Relationship Analysis” (Molecules, 2023).
Entries after “also recorded” stand apart in the source; their conditions may differ. Read-outs that look alike come from different tables or passages of the source. Values belong to the molecule of their own block, whether it stands above or below them.

Experiments:
IL-6 = assay: LPS-induced IL-6 production in peritoneal macrophages (ELISA); assay type: cell-based, C57BL/6 mice
Experimental: (§1) Peritoneal macrophages were obtained by washing the peritoneal cavities of C57B1/6 mice five days after intraperitoneal instillation of 2 mL of 3% thioglycollate. Macrophages were seeded in RPMI containing 10% FCS at 2 × 10^5 cells/well in 96-well plates and cultured for 2 h at 37 °C under a 5% CO2 atmosphere. Adherent cells were pretreated with the compounds (30 μM) 1 h before stimulation with LPS (10 ng/mL). For dose–response experiments, compounds were used at concentrations of 1, 3, 10, and 30 μM. Supernatants were collected 6 h after LPS stimulation. Control and experimental treatments were performed in the presence of 0.5% DMSO, as the compounds were solubilized in this solvent. The concentrations of TNF-α, IL-6, and PGE2 were determined by ELISA (R&D System) following the manufacturer’s protocol.
(§2) Results from the cytokine measurements and cytotoxicity assays were analyzed using the statistical software package GraphPad Prism 9.4.0. All data are presented as the mean ± S.E.M. Statistical analysis was performed by Student’s t-test. The differences between samples were considered significant when p < 0.05. The 50% inhibitory concentration (IC50) was calculated by adjusting a sigmoidal dose–response curve following the standard procedure in GraphPad Prism 5.

PGE2 = assay: LPS-induced PGE2 production in peritoneal macrophages (ELISA); assay type: cell-based, C57BL/6 mice; conditions: 30 μM, LPS 10 ng/mL, 6 h (Figure 6)
Experimental: as §1

TNF-α = assay: LPS-induced TNF-α production in peritoneal macrophages (ELISA); assay type: cell-based, C57BL/6 mice; conditions: for IC50: macrophages pretreated 1 h, supernatant 6 h, two independent experiments in triplicate, read-out: IC50 ± S.D. (μM) TNF-α
Experimental: as §1, §2

[1] = tested on: macrophages from the peritoneal cavities of C57BL/6 mice; assay: MTT cytotoxicity assay on macrophages; assay type: cell-based; conditions: 30 μM, after supernatant collection (Figure 4C)
Experimental: After removing the supernatants, 100 μL of 0.5 mg/mL MTT in RPMI was added to each well. Cells were incubated overnight at 37 °C, and formazan crystals were dissolved in 100 µL of 0.04 M HCl in isopropanol. Then, the absorbance was measured at 570 nm using an ELISA plate reader. Cell viability was calculated using the following formula: % viability: [(OD sample) × 100%]/(OD control). Nonstimulated cells represented 100% viability.

[2] = Mus musculus, Macrophage, LPS 10 ng/mL
[3] = dose-response, all concentrations tested (1, 3, 10, 30 μM) (Figure 5A)
[4] = single concentration 30 μM, LPS 10 ng/mL, 6 h (Figure 4A)
[5] = Mus musculus, Macrophage, macrophages pretreated 1 h, LPS 10 ng/mL, supernatant 6 h, two independent experiments in triplicate, read-out: IC50 ± S.D. (μM) IL-6
[6] = Mus musculus, Peritoneal macrophage, converted from IL-6 IC50 of this work, used for 3D-QSAR, read-out: Experimental pIC50 (converted)
[7] = dose-response, lowest concentration 1 µM (Figure 5B)
[8] = dose-response, 10 µM (Figure 5B)

Molecule: C#CCOC(=O)CCC(=O)Oc1ccc(CCC(=O)/C=C(\O)CCc2ccc(OC(=O)CCC(=O)OCC#C)c(OC)c2)cc1OC [Compound 3, (Z)-O,O′-((3-Hydroxy-5-oxohept-3-ene-1,7-diyl)bis(2-methoxy-4,1-phenylene)) di(prop-2-yn-1-yl) Disuccinate]
inhibition of IL-6 production (IL-6; single concentration 30 μM, LPS 10 ng/mL, 6 h (Figure 4B)): All compounds, except compound 3, inhibited the production of IL-6
reduction of PGE2 production (PGE2): significantly reduced; also recorded: highest activity

Molecule: COc1cc(CC/C(O)=C/C(=O)CCc2ccc(OC(=O)CCC(=O)O[C@@H]3C[C@H](C)CC[C@H]3C(C)C)c(OC)c2)ccc1OC(=O)CCC(=O)O[C@@H]1C[C@@H](C)CC[C@@H]1C(C)C [Compound 7, O,O′-(((Z)-3-Hydroxy-5-oxohept-3-ene-1,7-diyl)bis(2-methoxy-4,1-phenylene)) bis((1R,2S,5R)-2-Isopropyl-5-methylcyclohexyl) Disuccinate]
cytotoxicity (cell viability, MTT) [1]: cytotoxic

Molecule: Curcumin [Compound 1, reference compound]
IC50 (IL-6; Table S1, compounds presented in the current work, read-out: IC50 ± S.D. (uM) IL-6): 6.85 ± 2.5 µM

Molecule: COc1cc(CCC(=O)/C=C(\O)CCc2ccc(OC(=O)CCC(=O)OC(c3ccccc3)c3ccccc3)c(OC)c2)ccc1OC(=O)CCC(=O)OC(c1ccccc1)c1ccccc1 [Compound 6, (Z)-Dibenzhydryl O,O′-((3-hydroxy-5-oxohept-3-ene-1,7-diyl)bis(2-methoxy-4,1-phenylene)) Disuccinate]
cytotoxicity (cell viability, MTT) [1]: cytotoxic

Molecule: COc1cc(CCC(=O)/C=C(\O)CCc2ccc(OC(=O)CCC(=O)OCc3ccccc3)c(OC)c2)ccc1OC(=O)CCC(=O)OCc1ccccc1 [Compound 9, (Z)-Dibenzyl O,O′-((3-Hydroxy-5-oxohept-3-ene-1,7-diyl)bis(2-methoxy-4,1-phenylene)) Disuccinate]
cytotoxicity (cell viability, MTT) [1]: cytotoxic

Molecule: Tetrahydrocurcumin [Compound 2, reference compound]
inhibition of TNF-α production (TNF-α; [3]): inhibited
IC50 (TNF-α; LPS 10 ng/mL): 0.18 ± 0.18 µM
inhibition of TNF-α production (TNF-α; [4]): inhibited
Experimental pIC50 (IL-6; converted from IL-6 IC50 of this work, used for 3D-QSAR): 6.77
inhibition of IL-6 production (IL-6; [8]): inhibited
inhibition of IL-6 production (IL-6; [7]): inhibited
IC50 (IL-6; macrophages pretreated 1 h, LPS 10 ng/mL, supernatant 6 h, two independent experiments in triplicate, read-out: IC50 ± S.D. (μM) IL-6): 0.17 ± 0.2 µM
reduction of PGE2 production (PGE2): but not PGE2 production

Continued, in another order:

IC50 (TNF-α; [2]): 0.7 ± 0.1 µM
IC50 (IL-6; [5]): 0.72 ± 0.38 µM
IC50 (IL-6; [6]): 0.724 µM
Molecule: C=CCOC(=O)CCC(=O)Oc1ccc(CCC(=O)/C=C(\O)CCc2ccc(OC(=O)CCC(=O)OCC=C)c(OC)c2)cc1OC [Compound 12, (Z)-Diallyl O,O′-((3-hydroxy-5-oxohept-3-ene-1,7-diyl)bis(2-methoxy-4,1-phenylene)) Disuccinate]
inhibition of TNF-α production (TNF-α; [3]): inhibited
inhibition of TNF-α production (TNF-α; [4]): inhibited
inhibition of IL-6 production (IL-6; [7]): inhibited
reduction of PGE2 production (PGE2): significantly reduced; also recorded: highest activity; also recorded: more biologically active than tetrahydrocurcumin

IC50 (IL-6; [5]): 4.28 ± 4.88 µM
IC50 (IL-6; [6]): 4.27 µM
Molecule: COc1cc(CCC(=O)/C=C(\O)CCc2ccc(OC(=O)CCC(=O)OC3c4ccccc4-c4ccccc43)c(OC)c2)ccc1OC(=O)CCC(=O)OC1c2ccccc2-c2ccccc21 [Compound 4, (Z)-di(9H-Fluoren-9-yl)O,O′-((3-hydroxy-5-oxohept-3-ene-1,7-diyl)bis(2-methoxy-4,1-phenylene)) Disuccinate]
inhibition of IL-6 production (IL-6; [8]): inhibited

IC50 (IL-6; [5]): 3.66 ± 4.21 µM
IC50 (IL-6; [6]): 3.63 µM
Molecule: COc1cc(CCC(=O)/C=C(\O)CCc2ccc(OC(=O)CCC(=O)OC3CCCC3)c(OC)c2)ccc1OC(=O)CCC(=O)OC1CCCC1 [Compound 10, (Z)-Dicyclopentyl O,O′-((3-Hydroxy-5-oxohept-3-ene-1,7-diyl)bis(2-methoxy-4,1-phenylene)) Disuccinate]

IC50 (TNF-α; [2]): 3.21 ± 4.52 µM
IC50 (IL-6; [5]): 3.48 ± 4.39 µM
IC50 (IL-6; [6]): 3.47 µM
Molecule: COc1cc(CCC(=O)/C=C(\O)CCc2ccc(OC(=O)CCC(=O)OC3CCCc4ccccc43)c(OC)c2)ccc1OC(=O)CCC(=O)OC1CCCc2ccccc21 (stereo not shown) [Compound 8, (Z)-O,O′-((3-Hydroxy-5-oxohept-3-ene-1,7-diyl)bis(2-methoxy-4,1-phenylene)) bis(1,2,3,4-Tetrahydronaphthalen-1-yl) Disuccinate]
inhibition of IL-6 production (IL-6; [8]): inhibited

IC50 (IL-6; [5]): 9.13 ± 5.9 µM
IC50 (IL-6; [6]): 9.12 µM
Molecule: COc1cc(CCC(=O)/C=C(\O)CCc2ccc(OC(=O)CCC(=O)OC3Cc4ccccc4C3)c(OC)c2)ccc1OC(=O)CCC(=O)OC1Cc2ccccc2C1 [Compound 5, (Z)-bis(2,3-Dihydro-1H-inden-2-yl) O,O′-((3-hydroxy-5-oxohept-3-ene-1,7-diyl)bis(2-methoxy-4,1-phenylene)) Disuccinate]

IC50 (IL-6; [5]): 0.17 ± 0.21 µM
IC50 (IL-6; [6]): 0.17 µM
Molecule: COC(=O)CCC(=O)Oc1ccc(CCC(=O)/C=C(\O)CCc2ccc(OC(=O)CCC(=O)OC)c(OC)c2)cc1OC [Compound 11, (Z)-O,O′-((3-Hydroxy-5-oxohept-3-ene-1,7-diyl)bis(2-methoxy-4,1-phenylene)) dimethyl Disuccinate]
inhibition of TNF-α production (TNF-α; dose-response, 3 µM (Figure 5A)): showed an effect only when used at a concentration of 3 µM
inhibition of IL-6 production (IL-6; [7]): inhibited
reduction of PGE2 production (PGE2): significantly reduced; also recorded: highest activity
